In US6928770B2, “Alternating layer non-edible foraging matrix configurations for crawling arthropods” (priority 1999, dated 2005):
“And” between values parts separate entries of the source, which are not always exact repeats. Equal entries are not always repeated. Where two headings read alike, the source gives them in different places.

Legend:
Assay type in all cases: in vivo
[1] = tested on: termites (Reticulitermes flavipes (Kollar)); test: First experiment: test arena with three monitors, treated non-edible foraging matrix disc in one monitor
From the text: (§1) Data from two sets of experiments are included. In the first set of experiments, a total of 3,000 termites were used (2,970 workers and 30 soldiers) in all three replicates. In the second set of experiments, 3,000 termites were used in 4 replicates and 1,400 termites (1,386 workers and 14 soldiers) were used in two replicates for a total of six replicates. Fewer termites from 2 colonies were used because we could not collect enough to complete the replicates if a total of 3000 termites were used. The termites (Reticulitermes flavipes (Kollar)) were field collected from field colonies, separated from debris, and held in the laboratory at the USDA (United States Department of Agriculture) for no more than 14 days before introduction into a test arena for each experimental block. Termites from a different colony were used for each replicate.
(§2) The test arena consisted of Plexiglas sides (45 cm long, by 30 cm wide by 5.5 cm high) taped to a glass bottom (45 cm long, by 30 cm wide, by 0.6 cm high) with clear packing tape, manufactured by Crystal Clear, Manco Inc., Avon, Ohio. The Plexiglas sides were assembled by joining pieces with methylene chloride. Before the Plexiglas sides were taped to the glass bottom, the sides were baked in an oven at 40+/−2° C. for 24 hours to ensure that any volatiles caused by the methylene chloride were removed.
(§3) Builders sand from Unified Classification SP, O'Steen Bros., Inc., of Gainesville, Fla., was oven dried at 60+/−2° C. for at least 24 hours in metal pans. The sand was cooled and sieved using a sieve manufactured from Fisher Scientific Co., USA sieve no. 25, having openings of approximately 0.0278 inches each. The sieve was used to remove large pieces of debris. Two thousand five hundred grams (+/−1 g) of sand were poured into the arena and mixed thoroughly with 250 ml of double filtered, de-ionized water, which brought the moisture content of the sand to 10%. The sand was tamped and leveled.
(§4) Three monitoring stations were placed on top of the moistened builder's sand. The monitors were made of one roll of corrugated cardboard (100 cm by 6.5 cm) that was moistened and stacked into a white PVC coupler having an inner diameter of approximately 7 cm and being approximately 7.3 cm high, manufactured from Lasco of Brownsville, Tenn.
(§5) The non-edible foraging matrix treated with toxicant and used for the testing was a loamy, siliceous, thermic, arenic paleudults soil, which was a common sandy loam native soil from Central Florida. This native soil was initially oven dried at 150+/−2° C. for at least 24 hours, then cooled, then sifted to remove large pieces of organic debris. After treatment with a toxicant, the treated non-edible foraging matrix was formed into a disc for insertion into the monitors after termite activity occurred. The color contrast between the builder's sand, which was light honey color, and the native non-edible foraging matrix, which was a dark brown, was enough to see termites move portions of the treated soil particles from the discs into the tunnels.
In both sets of experiments, three different non-edible foraging matrix treatment applications were prepared using novel selected amounts of termite treatment chemicals. The difference between the first experiment and the second experiment was the rates used. […] The second application had the non-edible foraging matrix sample treated with 250 ppm of chlorfenapyr, a version entitled Phantom from American Cyanamid of Princeton, N.J. A third application had the non-edible foraging matrix treated with 125 ppm of fipronil, a version entitled Termidor, from Rhone-Poulenc of Research Triangle, N.C.
In both experimental set ups, controls were treated with filtered and de-ionized water. The treated non-edible foraging matrix was air dried for 7 days and stored in sealed plastic bags until ready for use. […]

subterranean termites [2] = conditions: embodiment 2
Method: In the first experiment for embodiment two, oven dried Alachua fine soil was treated with approximately 125.0 ppm chlorfenapyr as the non-edible foraging matrix 550. The mixture 550 was poured into the opening 542 and wet to a moisture level of 10%. The amount of mixture 550 added to opening 542 was recorded for each replicate. Circular plastic containers having a diameter of approximately 11.5 cm by approximately 10 cm thick were filled with approximately 514 g of builder's sand and wet to a moisture level of approximately 10%. Embodiment 2 was inserted into the builder's sand in the plastic cup, 500 subterranean termites were added and the termites were allowed to tunnel for 3 weeks. After 3 weeks, the plastic container setup was disassembled. The number of live termites in the experimental unit was recorded. The amount of mixture 550 displaced from embodiment 2 was measured and recorded. Data were analyzed with a comparison test, between an untreated control sample and four replications(experimental units) of chlorfenatyr(slow acting toxicant).
Alive refers to number of termites alive after three(3) weeks exposure. %Mortality refers to percentage of termites that died after three(3) weeks exposure. Soil Moved(g) refers to total amount soil removed by the termites per each replication(per experimental unit). […] An average of 99.95% of the termites in treated units died, compared with 8.8% mortality in the control unit. […] Total untreated mixture 550 moved from embodiment 2 to the surrounding area was approximately 3.93 g, compared with an average of approximately 1.49 g of mixture 550 treated with approximately 125.0 ppm chlorfenapyr.
(§6) In the second experiment, mixture 550 was tested at a concentration of approximately 12.5 ppm chlorfenapyr. Experimental procedure was identical to what is listed above.

[3] = tested on: termites (Reticulitermes flavipes (Kollar)); test: Second experiment: test arena with treated foraging matrix disc at lower rates, termite survival in arenas; conditions: for Time for cessation of termite activity: second experiment, activity in the monitors not detected
From the text: as §1, §2, §3, §4, §5
The second application had the non-edible foraging matrix sample treated with 2.5 and 25.0 ppm of chlofenapyr, a version entitled Phantom from American Cyanamid of Princeton, N.J. A third application had the non-edible foraging matrix treated with 1.25 and 12.5 ppm of fipronil, a version entitled Termidor, from Rhone-Poulenc of Research Triangle, N.C. It is important to note that the rates used were approximately 10 and 100 times less than the rates use in the first experiment and are also 10 to 100 times less than the rates listed or proposed on the pesticide labels. Thus, the rates used in this experiment was not used for the intended purpose of the chemicals, which was to immediately kill the termites by creating a chemical barrier completely around the structure.
In both experimental set ups, controls were treated with filtered and de-ionized water. […]

subterranean termites [4] = conditions: embodiment 3
Method: In the first experiment for embodiment 3, oven dried Alachua fine soil was treated with approximately 125.0 ppm chlorfenapyr as the non-edible foraging matrix 550. The mixture 550 was poured into the opening 542 and wet to a moisture level of 10%. The amount of mixture 550 added to opening 542 was recorded for each replicate. Plastic containers (approximately 11.5 cm diameter, approximately 10 cm high) were filled with approximately 514 g of builder's sand and wet to a moisture level of approximately 10%. Embodiment 3 was assembled and inserted into the builder's sand in the plastic cup, 500 subterranean termites were added and the termites were allowed to tunnel for 3 weeks. After 3 weeks, the plastic container setup was disassembled. The number of live termites in the experimental unit was recorded. The amount of mixture 550 displaced from embodiment 2 was measured and recorded.
Alive refers to number of termites alive after three(3) weeks exposure. %Mortality refers to percentage of termites that died after three(3) weeks exposure. Soil Moved(g) refers to total amount soil removed by the termites per each replication(per experimental unit).
as §6

[5] = approximately 12.5 ppm chlorfenapyr
[6] = approximately 125.0 ppm chlorfenapyr

SMILES: CCOCn1c(-c2ccc(Cl)cc2)c(C#N)c(Br)c1C(F)(F)F [Chlorfenapyr, chlorfenapyr]
- Mean ± SE number of termites in monitors ([1]; foraging matrix 250 ppm chlorfenapyr, week 1): 100 ± 11.9
- Mean ± SE number of termites in monitors ([1]; foraging matrix 250 ppm chlorfenapyr, week 2): 60.7 ± 12.9
- Mean ± SE number of termites in monitors ([1]; foraging matrix 250 ppm chlorfenapyr, week 3): 21.3 ± 12.2
- Mean ± SE number of termites in monitors ([1]; foraging matrix 250 ppm chlorfenapyr, week 4): 10.9 ± 7.6
- Mean ± SE number of termites in monitors ([1]; foraging matrix 250 ppm chlorfenapyr, week 5): 3.5 ± 3.3
- Mean ± SE number of termites in monitors ([1]; foraging matrix 250 ppm chlorfenapyr, week 6): 0.8 ± 0.8
- Mean ± SE number of termites in monitors ([1]; foraging matrix 250 ppm chlorfenapyr, week 7): 0 ± 0
- Mean ± SE number of termites in monitors ([1]; foraging matrix 250 ppm chlorfenapyr, week 8): 0 ± 0
- Amount of mixture 550 moved, treated compared with untreated (subterranean termites [2]; [5]): no significant difference
- Mortality compared with untreated replications (subterranean termites [2]; [5]): significantly higher
- Average percentage of termites in treated units that died (subterranean termites [2]; approximately 12.5 ppm chlorfenapyr, approximately 13.2% in untreated control units): approximately 85.3%
- Amount of mixture 550 moved, treated compared with untreated (subterranean termites [2]; [6]): significantly more of the untreated mixture 550 was moved
- Mortality compared with untreated replications (subterranean termites [2]; [6]): significantly higher
- Average percentage of termites in treated units that died (subterranean termites [2]; approximately 125.0 ppm chlorfenapyr, 3 weeks, 8.8% in control unit): 99.95%
- % Mortality (subterranean termites [2]; approximately 125.0 ppm chlorfenapyr, after 3 weeks exposure, per replication): 100.0% and 99.8%
- Amount of mixture 550 moved, 12.5 ppm compared with 125.0 ppm (subterranean termites [2]; chlorfenapyr 12.5 ppm vs 125.0 ppm): significantly more mixture 550 treated at 12.5 ppm was moved
- Mortality, approximately 125 ppm compared with approximately 12.5 ppm (subterranean termites [2]; chlorfenapyr 125 ppm vs 12.5 ppm): no significant differences
- Mean ± SE percent survival of termites ([3]; chlorfenapyr 2.5 ppm foraging matrix, after 8 weeks): 9.33 ± 5.05a^1%
- Mean ± SE percent survival of termites ([3]; chlorfenapyr 2.5 ppm foraging matrix, after 8 weeks, listed as chlorfenapyr): 9.33%
- Mean ± SE percent survival of termites ([3]; chlorfenapyr 25.0 ppm foraging matrix, after 8 weeks): 0.16 ± 0.16b %
- Mean ± SE percent survival of termites ([3]; chlorfenapyr 25.0 ppm foraging matrix, after 8 weeks, listed as chlorfenapyr): 0.16%
- Termite kill (in words) ([3]; chlorfenapyr at 25 ppm): killed virtually all the termites
- Time for cessation of termite activity [3]: 8 weeks
- Alive (number of termites alive) (subterranean termites [4]; 125.0 ppm chlorfenapyr, 500 termites, after 3 weeks exposure, per replication): 0
- % Mortality (subterranean termites [4]; 125.0 ppm chlorfenapyr, after 3 weeks exposure, per replication): 100.0%
- Amount of mixture 550 moved, treated compared with untreated (subterranean termites [4]; [5]): significantly less treated mixture 550 moved
- Mortality compared with untreated controls (subterranean termites [4]; [5]): no significant difference
- % Mortality (subterranean termites [4]; approximately 12.5 ppm chlorfenapyr, after 3 weeks exposure, per replication): 100%
- Average percentage of termites in treated units that died (subterranean termites [4]; approximately 12.5 ppm chlorfenapyr, approximately 18.5% in untreated control units): approximately 37.7%
- Amount of mixture 550 moved, treated compared with untreated (subterranean termites [4]; [6]): significantly more of the untreated mixture 550 was moved
- Average percentage of termites in treated units that died (subterranean termites [4]; approximately 125.0 ppm chlorfenapyr, approximately 9.6% in control unit): 100.0%

SMILES: N#Cc1nn(-c2c(Cl)cc(C(F)(F)F)cc2Cl)c(N)c1[S+]([O-])C(F)(F)F (stereo not drawn) [Fipronil, fipronil]
- Mean ± SE number of termites in monitors ([1]; foraging matrix 125 ppm fipronil, week 1): 73.8 ± 11.1
- Mean ± SE number of termites in monitors ([1]; foraging matrix 125 ppm fipronil, week 2): 44.3 ± 18.8
- Mean ± SE number of termites in monitors ([1]; foraging matrix 125 ppm fipronil, week 3): 14.6 ± 8.0
- Mean ± SE number of termites in monitors ([1]; foraging matrix 125 ppm fipronil, week 4): 6.4 ± 3.4
- Mean ± SE number of termites in monitors ([1]; foraging matrix 125 ppm fipronil, week 5): 2.6 ± 1.6
- Mean ± SE number of termites in monitors ([1]; foraging matrix 125 ppm fipronil, week 6): 0.3 ± 0.3
- Mean ± SE number of termites in monitors ([1]; foraging matrix 125 ppm fipronil, week 7): 0 ± 0
- Mean ± SE number of termites in monitors ([1]; foraging matrix 125 ppm fipronil, week 8): 0 ± 0
- Mean ± SE percent survival of termites ([3]; fipronil 1.25 ppm foraging matrix, after 5 weeks): 0.51 ± 0.30b %
- percent survival ([3]; fipronil 12.5 and 1.25 ppm foraging matrix, 39% in untreated arenas): 0.3-0.5%
- Mean ± SE percent survival of termites ([3]; fipronil 12.5 ppm foraging matrix, after 5 weeks): 0.30 ± 0.29b %
- Termite kill (in words) ([3]; fipronil at 1.25 and 12.5 ppm): killed virtually all the termites
- Time for cessation of termite activity [3]: 5 weeks

SMILES: O=[N+]([O-])NC1=NCCN1Cc1ccc(Cl)nc1 [Imidacloprid, imidacloprid]
- Termites in the monitors ([1]; 50 ppm imidacloprid, first experiment, summary of Table 1): 54 termites
- Mean ± SE number of termites in monitors ([1]; foraging matrix 50 ppm imidacloprid, week 1): 82.0 ± 2.7
- Mean ± SE number of termites in monitors ([1]; foraging matrix 50 ppm imidacloprid, week 2): 67.5 ± 0.1
- Mean ± SE number of termites in monitors ([1]; foraging matrix 50 ppm imidacloprid, week 3): 45.7 ± 14.9
- Mean ± SE number of termites in monitors ([1]; foraging matrix 50 ppm imidacloprid, week 4): 13.7 ± 2.9
- Mean ± SE number of termites in monitors ([1]; foraging matrix 50 ppm imidacloprid, week 5): 8.0 ± 3.7
- Mean ± SE number of termites in monitors ([1]; foraging matrix 50 ppm imidacloprid, week 6): 3.2 ± 3.0
- Mean ± SE number of termites in monitors ([1]; foraging matrix 50 ppm imidacloprid, week 7): 1.4 ± 1.4
- Mean ± SE number of termites in monitors ([1]; foraging matrix 50 ppm imidacloprid, week 8): 1.8 ± 0.9
- percent survival ([3]; imidacloprid 0.5 and 5.0 ppm foraging matrix, 23% in untreated arenas): 17%
- Mean ± SE percent survival of termites ([3]; imidacloprid 0.5 ppm foraging matrix, after 8 weeks): 17.13 ± 11.61a %
- Mean ± SE percent survival of termites ([3]; imidacloprid 5.0 ppm foraging matrix, after 8 weeks): 17.57 ± 9.36a %
- Time for cessation of termite activity [3]: 8 weeks
